Assay: Example 2: phase 3 trial, enavogliflozin 0.3 mg vs dapagliflozin 10 mg once a day for 24 weeks added to metformin in patients with type 2 diabetes (same efficacy, exploratory and safety endpoints)
Format: in vivo, human
Protocol: Subjects who met the inclusion/exclusion criteria were administered a placebo of the clinical trial drug under single-blind (subject blinding) conditions during a 2-week run-in period while continuing to receive metformin. […] The randomized subjects were administered two tablets of the clinical trial drug for each administration group once a day, and then visited the institution at weeks 6, 12, 18, and 24 during the 24-week administration period to conduct efficacy and safety evaluations.
• 1. Change in HbA1c at week 24 after administration of clinical trial drug compared to Visit 2 (randomization)
• 1. Change in HbA1c at each time point of weeks 6, 12, and 18 after administration of clinical trial drug compared to Visit 2 (randomization) • 2. Change in FPG at each time point of weeks 6, 12, 18, and 24 after administration of clinical trial drug compared to Visit 2 (randomization) • 3. Proportion of subjects achieving HbA1c<7% at each time point of weeks 6, 12, 18, and 24 after administration of clinical trial drug • 4. Proportion of subjects achieving HbA1c<6.5% at each time point of weeks 6, 12, 18, and 24 after administration of clinical trial drug • 5. Proportion of subjects achieving therapeutic response (HbA1c change (HbA1c at Visit 2-HbA1c at each evaluation time point)>0.5% or HbA1c<7% at each evaluation time point compared to Visit 2 (randomization)) at each time point of weeks 6, 12, 18 and 24 after administration of clinical trial drug
• 1. Change in fasting c-peptide at each time point of weeks 6, 12, 18, and 24 after administration of clinical trial drug compared to Visit 2 (randomization) • 2. Change in body weight at each time point of weeks 6, 12, 18, and 24 after administration of clinical trial drug compared to Visit 2 (randomization) • 3. Change in fasting lipid concentration (total cholesterol, LDL-C, HDL-C, and triglycerides) at each time point of weeks 6, 12, 18, and 24 after administration of clinical trial drug compared to Visit 2 (randomization) • 4. Changes in systolic or diastolic blood pressure at each time point of weeks 6, 12, 18, and 24 after administration of clinical trial drug compared to Visit 2 (randomization) • 5. Changes in β-cell function and insulin resistance measured by HOMA-β and HOMA-IR at each time point of weeks 6, 12, 18, and 24 after administration of clinical trial drug compared to Visit 2 (randomization) • 6. Changes in renal function-related indicators (UACR, UGCR) measured by UACR at each time point of weeks 6, 12, 18, and 24 after administration of clinical trial drug compared to Visit 2 (randomization) • 7. Changes in obesity-related indicators (adiponectin, leptin) at each time point of weeks 6, 12, 18, and 24 after administration of clinical trial drug compared to Visit 2 (randomization)

[1] = week 6, modified per-protocol set 1, enavogliflozin 0.3 mg, dapagliflozin 10 mg
[2] = week 6, per-protocol set, enavogliflozin 0.3 mg, dapagliflozin 10 mg
[3] = week 12, modified per-protocol set 1, enavogliflozin 0.3 mg, dapagliflozin 10 mg

CCOc1ccc(Cc2cc([C@@H]3O[C@H](CO)[C@@H](O)[C@H](O)[C@H]3O)ccc2Cl)cc1 [Dapagliflozin, reference compound]
HOMA-IR, Median (Week 24, PPS): 1.82 | HOMA-β change from baseline, ANCOVA LS mean (SE) (Week 24, PPS): 11.93 | HOMA-β change from baseline, Mean (SD) (Week 24, PPS): 12.23 | HOMA-β change from baseline, Median (Week 24, PPS): 5.30 | HOMA-β, Mean (SD) (Week 24, PPS): 56.67 | HOMA-β, Median (Week 24, PPS): 46.75 | Leptin change from baseline, ANCOVA LS mean (SE) (Week 24, PPS): -1.28 ng/mL | Leptin change from baseline, Mean (SD) (Week 24, PPS): -1.31 ng/mL | Leptin change from baseline, Median (Week 24, PPS): -1.17 ng/mL | Leptin, Mean (SD) (Week 24, PPS): 10.37 ng/mL | Leptin, Median (Week 24, PPS): 6.69 ng/mL | UACR change from baseline, ANCOVA LS mean (SE) (Week 24, PPS): -17.37 g/kg | UACR change from baseline, Mean (SD) (Week 24, PPS): -25760 mg/kg | UACR change from baseline, Median (Week 24, PPS): -1.70 g/kg | UACR, Mean (SD) (Week 24, PPS): 31370 mg/kg | UACR, Median (Week 24, PPS): 11.10 g/kg | UGCR change from baseline, ANCOVA LS mean (SE) (Week 24, PPS): 44.94 mg/mg | UGCR change from baseline, Mean (SD) (Week 24, PPS): 43.01 mg/mg | UGCR change from baseline, Median (Week 24, PPS): 42.01 mg/mg | UGCR, Mean (SD) (Week 24, PPS): 45.27 mg/mg | UGCR, Median (Week 24, PPS): 43.81 mg/mg | HDL-C change from baseline, ANCOVA LS mean (SE) (Week 24, mPPS1): 3.19(0.66) mg/dL | HDL-C change from baseline, Mean (SD) (Week 24, mPPS1): 3.55(5.30) mg/dL | HDL-C change from baseline, Median (Week 24, mPPS1): 3.00 mg/dL | HDL-C, Mean (SD) (Week 24, mPPS1): 50.45(9.72) mg/dL | HDL-C, Median (Week 24, mPPS1): 50.00 mg/dL | LDL-C change from baseline, ANCOVA LS mean (SE) (Week 24, mPPS1): 0.93(1.98) mg/dL | LDL-C change from baseline, Mean (SD) (Week 24, mPPS1): 2.68(20.64) mg/dL | LDL-C change from baseline, Median (Week 24, mPPS1): 2.00 mg/dL | LDL-C, Mean (SD) (Week 24, mPPS1): 78.84(25.81) mg/dL | LDL-C, Median (Week 24, mPPS1): 76.00 mg/dL | Triglycerides change from baseline, ANCOVA LS mean (SE) (Week 24, mPPS1): −6.70(5.28) mg/dL | Triglycerides change from baseline, Mean (SD) (Week 24, mPPS1): −10.64(52.51) mg/dL | Triglycerides change from baseline, Median (Week 24, mPPS1): -7.00 mg/dL | Triglycerides, Mean (SD) (Week 24, mPPS1): 122.28(58.14) mg/dL | Triglycerides, Median (Week 24, mPPS1): 110.00 mg/dL | Diastolic blood pressure change from baseline, ANCOVA LS mean (SE) (Week 24, mPPS2): −4.26 mmHg | Diastolic blood pressure change from baseline, Mean (SD) (Week 24, mPPS2): −3.87 mmHg | Diastolic blood pressure change from baseline, Median (Week 24, mPPS2): −4.00 mmHg | Diastolic blood pressure, Mean (SD) (Week 24, mPPS2): 72.05 mmHg | Diastolic blood pressure, Median (Week 24, mPPS2): 71.00 mmHg | Systolic blood pressure change from baseline, ANCOVA LS mean (SE) (Week 24, mPPS2): −6.57(1.04) mmHg | Systolic blood pressure change from baseline, Mean (SD) (Week 24, mPPS2): −6.03(12.13) mmHg | Systolic blood pressure change from baseline, Median (Week 24, mPPS2): −7.00 mmHg | Systolic blood pressure, Mean (SD) (Week 24, mPPS2): 121.40(11.90) mmHg | Systolic blood pressure, Median (Week 24, mPPS2): 122.00 mmHg | FPG change from baseline, LS mean (SE) (week 6): −23.81(2.23) mg/dL | HOMA-IR change from baseline, LS mean (SE) (week 6): −1.31(0.15) | HOMA-β change from baseline, LS mean (SE) (week 6): −1.79(5.59) | HbA1c change from baseline, LS mean (SE) (week 6): −0.63(0.04) % p | LDL-C change from baseline, LS mean (SE) (week 6): 4.20(1.95) mg/dL | Subjects achieving HbA1c target of <7% (week 6): (51.69) % | Subjects achieving HbA1c<6.5% (week 6): 14.61% | Subjects achieving therapeutic response (HbA1c change >0.5% or HbA1c<7%) (week 6): 79.78% | UACR change from baseline, LS mean (SE) (week 6): 8.13(10.88) g/kg | UGCR change from baseline, LS mean (SE) (week 6): 50.10(2.80) mg/mg | diastolic blood pressure change from baseline, LS mean (SE) (week 6): −1.47(0.72) mmHg | fasting c-peptide change from baseline, LS mean (SE) (week 6): −0.07(0.02) ng/ml | leptin change from baseline, LS mean (SE) (week 6): −1.62(0.47) ng/mL | Subjects achieving HbA1c target of <7% (week 6, listed as dapagliflozin): 51.69% | Change from baseline in Total cholesterol, ANCOVA LS mean (SE) [1]: 6.87(2.27) mg/dL | Change from baseline in Total cholesterol, Mean (SD) [1]: 7.71(22.44) mg/dL | Change from baseline in total cholesterol, Median [1]: 7.00 mg/dL | fasting Total cholesterol, Mean (SD) [1]: 145.62(31.91) mg/dL | fasting Total cholesterol, Median [1]: 145.50 mg/dL | Change from baseline in FPG, ANCOVA LS mean (SE) [2]: -23.81 mg/dL | Change from baseline in FPG, Mean (SD) [2]: -24.90 mg/dL | Change from baseline in FPG, Median [2]: -24.00 mg/dL | Change from baseline in HbA1c, ANCOVA LS mean (SE) [2]: −0.63 % p | Change from baseline in HbA1c, Mean (SD) [2]: −0.58 % p | Change from baseline in HbA1c, Median [2]: −0.59 % p | Change from baseline in body weight, ANCOVA LS mean (SE) [2]: −1.61(0.21) kg | Change from baseline in body weight, Mean (SD) [2]: −1.60(1.25) kg | Change from baseline in body weight, Median [2]: -1.50 kg | Change from baseline in fasting c-peptide, ANCOVA LS mean (SE) [2]: −0.07(0.02) ng/mL | Change from baseline in fasting c-peptide, Mean (SD) [2]: −0.07(0.18) ng/mL | Change from baseline in fasting c-peptide, Median [2]: -0.07 ng/mL | FPG, Mean (SD) [2]: 124.37 mg/dL | FPG, Median [2]: 122.00 mg/dL | HbA1c, Mean (SD) [2]: 7.10% | HbA1c, Median [2]: 6.98% | Subjects achieving HbA1c target of <6.5%, (%) [2]: (14.61) % | Subjects achieving therapeutic glycemic response, (%) [2]: (79.78) % | body weight, Mean (SD) [2]: 68.88(11.86) kg | body weight, Median [2]: 66.90 kg | fasting c-peptide, Mean (SD) [2]: 0.66(0.20) ng/mL | fasting c-peptide, Median [2]: 0.63 ng/mL | FPG change from baseline, LS mean (SE) (week 12): −30.11(2.03) mg/dL | HOMA-IR change from baseline, LS mean (SE) (week 12): −1.60(0.17) | HOMA-β change from baseline, LS mean (SE) (week 12): 8.75(3.15) | HbA1c change from baseline, LS mean (SE) (week 12): −0.79(0.05) % p | LDL-C change from baseline, LS mean (SE) (week 12): 0.56(1.73) mg/dL | Subjects achieving HbA1c target of <7% (week 12): (63.64) % | Subjects achieving HbA1c<6.5% (week 12): 26.14% | Subjects achieving therapeutic response (HbA1c change >0.5% or HbA1c<7%) (week 12): 79.55% | UACR change from baseline, LS mean (SE) (week 12): −3.38(7.57) g/kg | UGCR change from baseline, LS mean (SE) (week 12): 45.14(2.66) mg/mg | diastolic blood pressure change from baseline, LS mean (SE) (week 12): −4.35(0.81) mmHg | fasting c-peptide change from baseline, LS mean (SE) (week 12): −0.09(0.02) ng/ml | leptin change from baseline, LS mean (SE) (week 12): −2.70(0.51) ng/mL | Subjects achieving HbA1c target of <7% (week 12, listed as dapagliflozin): 63.64% | Change from baseline in Total cholesterol, ANCOVA LS mean (SE) [3]: 4.25(2.04) mg/dL | Change from baseline in Total cholesterol, Mean (SD) [3]: 5.47(18.88) mg/dL | Change from baseline in total cholesterol, Median [3]: 5.00 mg/dL
